Results published in patent US6479510B2, “Quinuclidine-substituted aryl compounds for treatment of disease” (Pharmacia & Upjohn Company, priority 2000, dated 2002).
Where a name gives a salt, the structure may show the parent alone. Read-outs that look alike come from different tables or passages of the source.

Target: α7 nAChR (Rattus norvegicus, UniProt Q05941)
Assay: [3H]-MLA competition binding assay in rat brain membranes
Text: Materials and Methods for identifying binding constants: […]

Sequence of α7 nAChR (Q05941 23-502): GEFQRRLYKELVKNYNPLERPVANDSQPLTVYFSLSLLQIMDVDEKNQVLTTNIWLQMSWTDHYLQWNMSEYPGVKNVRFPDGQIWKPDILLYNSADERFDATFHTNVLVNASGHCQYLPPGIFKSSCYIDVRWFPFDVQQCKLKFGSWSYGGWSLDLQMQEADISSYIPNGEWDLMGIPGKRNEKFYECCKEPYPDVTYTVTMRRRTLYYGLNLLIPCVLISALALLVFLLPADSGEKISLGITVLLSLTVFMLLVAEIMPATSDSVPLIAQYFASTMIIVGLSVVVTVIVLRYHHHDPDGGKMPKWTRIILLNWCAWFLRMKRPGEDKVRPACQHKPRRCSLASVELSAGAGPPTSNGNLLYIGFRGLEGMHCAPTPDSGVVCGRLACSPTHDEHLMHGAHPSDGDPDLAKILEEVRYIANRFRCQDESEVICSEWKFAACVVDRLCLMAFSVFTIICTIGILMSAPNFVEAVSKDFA

| SMILES | Ki [µM] | Ki (read-out: Ki) [µM] |
| --- | --- | --- |
| O=C(N[C@H]1CN2CCC1CC2)c1ccc(Oc2cccc(Cl)c2)cc1 [Example 12, N-[(3R)-1-azabicyclo[2.2.2]oct-3-yl]-4-(3-chlorophenoxy)-benzamide] | 1.59 | – |
| O=C(N[C@H]1CN2CCC1CC2)c1ccc(Oc2ccc(Cl)cc2)cc1 [Example 13, N-[(3R)-1-azabicyclo[2.2.2]oct-3-yl]-4-(4-chlorophenoxy)-benzamide] | 1.24 | – |
| CC1C(NC(=O)c2ccc(Oc3ccccc3)cc2)C2CCN1CC2 (centres unmarked) [Example 23, N-(2-methyl-1-azabicyclo[2.2.2]oct-3-yl)-4-phenoxybenzamide Fumarate] | – | 1.66 to 1.98 |
| O=C(N[C@H]1CN2CCC1CC2)c1ccc(Oc2ccccc2)cc1 [Example 3, N-[(3R)-1-azabicyclo[2.2.2]oct-3-yl]-4-phenoxybenzamide] | 0.847 | – |
| O=C(N[C@H]1CN2CCC1CC2)c1ccc(C(=O)c2ccccc2)cc1 [Example 7, N-[(3R)-1-azabicyclo[2.2.2]oct-3-yl]-4-benzoylbenzamide] | 1.58 | – |
| O=C(N[C@H]1CN2CCC1CC2)c1ccc(Sc2cccc(Cl)c2)cc1 [Example 17, N-[(3R)-1-azabicyclo[2.2.2]oct-3-yl]-4-(3-chlorophenylsulfanyl)benzamide] | 0.17 | – |
| O=C(N[C@H]1CN2CCC1CC2)c1ccc(Oc2ccc(F)cc2)cc1 [Example 8, N-[(3R)-1-azabicyclo[2.2.2]oct-3-yl]-4-(4-fluorophenoxy)benzamide] | 0.91 | – |
| COc1cccc(Oc2ccc(C(=O)N[C@H]3CN4CCC3CC4)cc2)c1 [Example 15, N-[(3R)-1-azabicyclo[2.2.2]oct-3-yl]-4-(3-methoxyphenoxy)-benzamide] | – | 0.835 |
| O=C(N[C@H]1CN2CCC1CC2)c1ccc(Oc2ccc(O)cc2)cc1 [Example 1, N-[(3R)-1-azabicyclo[2.2.2]oct-3-yl]-4-(4-hydroxyphenoxy)benzamide] | 0.278 | – |
| COc1ccc(Oc2ccc(C(=O)N[C@H]3CN4CCC3CC4)cc2)cc1 [Example 16, N-[(3R)-1-azabicyclo[2.2.2]oct-3-yl]-4-(4-methoxyphenoxy)-benzamide] | 0.414 | – |
| CC(=O)Nc1ccc(Oc2ccc(C(=O)N[C@H]3CN4CCC3CC4)cc2)cc1 [Example 2, N-[(3R)-1-azabicyclo[2.2.2]oct-3-yl]-4-(4-acetamidophenoxy)benzamide] | 0.27 | – |
